# Results: the NIST ThermoML archive (doi:10.1021/je025579q)
# ± gives the expanded uncertainty stated by the source.
# Assays:
# [1] = 298.15 K; 101.33 kPa; Liquid
# [2] = xn = mol fraction of the nth substance listed; settings: 298.15 K, 101.3 kPa, Liquid; for speed of sound: Sing-around technique in a fixed-path interferometer
structure (smiles),measurement,setting,value
COC(C)(C)C [2-methoxy-2-methylpropane],mass density,[1],735.35 ± 0.36 kg/m3
same,speed of sound,[1],1036.1 ± 0.5 m/s
CCCCO [butan-1-ol],mass density,[1],805.67 ± 0.29 kg/m3
same,speed of sound,[1],1239.8 ± 0.7 m/s
CCCCO [butan-1-ol] + CCCCCCCCCC,speed of sound,[2]; x1 = 1,1239.8 ± 0.9 m/s
same,mass density,[2]; x1 = 1,805.67 ± 0.23 kg/m3
CCCCCCCCCC [decane],mass density,[1],726.09 ± 0.52 kg/m3
same,speed of sound,[1],1234.7 ± 1.1 m/s
CCCCCCCCCC [decane] + CCCCO,speed of sound,[2]; x2 = 0,1234.7 ± 1.4 m/s
same,speed of sound,[2]; x2 = 0.04848,1230.8 ± 1.3 m/s
same,speed of sound,[2]; x2 = 0.09526,1228.9 ± 1.3 m/s
same,speed of sound,[2]; x2 = 0.2045,1225.6 ± 1.2 m/s
same,speed of sound,[2]; x2 = 0.2974,1223.9 ± 1.2 m/s
same,speed of sound,[2]; x2 = 0.3949,1222.7 ± 1.1 m/s
same,speed of sound,[2]; x2 = 0.4455,1222.5 ± 1.1 m/s
same,speed of sound,[2]; x2 = 0.4928,1222.4 ± 1.1 m/s
same,speed of sound,[2]; x2 = 0.5579,1222.7 ± 1.1 m/s
same,speed of sound,[2]; x2 = 0.5937,1222.9 ± 1.1 m/s
same,speed of sound,[2]; x2 = 0.7031,1224.6 ± 1 m/s
same,speed of sound,[2]; x2 = 0.7901,1226.7 ± 1 m/s
same,speed of sound,[2]; x2 = 0.8707,1230.4 ± 1 m/s
same,speed of sound,[2]; x2 = 0.948,1235.3 ± 0.9 m/s
same,mass density,[2]; x2 = 0,726.09 ± 0.46 kg/m3
same,mass density,[2]; x2 = 0.04848,727.38 ± 0.45 kg/m3
same,mass density,[2]; x2 = 0.09526,728.99 ± 0.44 kg/m3
same,mass density,[2]; x2 = 0.2045,733.33 ± 0.41 kg/m3
same,mass density,[2]; x2 = 0.2974,737.65 ± 0.39 kg/m3
same,mass density,[2]; x2 = 0.3949,742.88 ± 0.37 kg/m3
same,mass density,[2]; x2 = 0.4455,745.96 ± 0.36 kg/m3
same,mass density,[2]; x2 = 0.4928,749.07 ± 0.34 kg/m3
same,mass density,[2]; x2 = 0.5579,753.72 ± 0.33 kg/m3
same,mass density,[2]; x2 = 0.5937,756.5 ± 0.32 kg/m3
same,mass density,[2]; x2 = 0.7031,766.17 ± 0.3 kg/m3
same,mass density,[2]; x2 = 0.7901,775.35 ± 0.28 kg/m3
same,mass density,[2]; x2 = 0.8707,785.36 ± 0.26 kg/m3
same,mass density,[2]; x2 = 0.948,796.76 ± 0.24 kg/m3
